Measurements from patent US10238641B2, “Materials and methods for diagnosis, prevention and/or treatment of stress disorders and conditions associated with A-beta peptide aggregation” (The United States of America as represented by the …, priority 2008, dated 2019).

Assays:
cortical cells = experiment: Survival of cortical cells exposed to cotinine alone, MTT assay; type: cell-based, rat; settings: various concentrations of cotinine, 48 hours
Protocol: Cortical cells were subjected to various concentrations of cotinine and cell viability was assessed after 48 hours by MTT assay (see FIG. 1). Statistical significance of the differences in MTT values was assessed by one-way ANOVA with Tukey post-test. ns, not significant difference with (P>0.05).

[1] = test system: sensorimotor abilities in mice; experiment: Open field activity test; type: in vivo; settings: data not shown
nAChRs = type: cell-based, rat
[2] = test system: rat cortical cells exposed to Aβ; experiment: Aβ toxicity assay, double calcein-AM and PI staining; type: cell-based; settings: 5 μM Aβ + 10 μM cotinine, 24 h; Aβ alone 63%
Protocol: (§1) Primary cortical embryonic rat neurons were incubated with 5 μM Aβ in the presence or absence of various concentrations cotinine for […] as described (Echeverria et al. (2005)). Cell viability was assessed using the MTT assay (Sigma). As an alternative approach cell viability after exposure to Aβ and cotinine was assessed using the vital dye calcein-AM (green fluorescence) to stain live cells and propidium iodide to stain dead cells. MTT values were normalized to control values considered 100%.
In the double calcein-AM and Propidium iodide (PI) staining, PI binds to nucleic acid and is commonly used for identifying dead cells, since it is impermeable to the membranes of viable cells. Calcein-AM is converted to calcein by live cells, binds to the cellular calcium, and stains the cells by emitting a green fluorescence. […] After incubation cells were washed with PBS and the number of calcein-stained (green) and nuclei stained with PI (red) were analyzed by fluorescence microscopy. More than 600 cells per condition were analyzed in several 20× focal planes and recorded.
(§2) To investigate the effect of cotinine on Aβ neurotoxicity, rat cortical cells were grown in conditions that permitted us to obtain a neuron-enriched culture (around 95% neuron and 5% glial cells) for 7-10 days. […] After 24 h, cell survival was assessed by using MTT and PI and calcein-AM cell viability assays.

[3] = test system: rat cortical cells exposed to Aβ1-42; experiment: Aβ toxicity assay, MTT cell viability; type: cell-based
Protocol: as §1
It has been discovered that cotinine protects brain cortical cells against the toxicity of the Amyloid beta peptide. The cortical cells were exposed to 5 microM Aβ for 24 hours and 48 hours and analyzed for cell viability using two viability tests. Cell viability was quantified by MTT and propidium iodide (PI) and calcein-AM staining assays. MTT assay measures the mitochondrial conversion of the tetrazolium salt MTT (3-(4,5-dimethylthiazol-2-yl)-2,5-diphenyl tetrazolium bromide) to formazan. To perform the MTT assay the cell culture medium was replaced with medium containing MTT (0.5 mg/mL). Following 1-4 h of incubation at 37° C., MTT formazan crystals were dissolved in DMSO and absorbance at 570 nm was measured. Absorbance values are a measure of cell viability. MTT results are expressed as percentage of vehicle treated controls. MTT assays were performed by measuring the levels of formazan after dissolving the precipitates in DMSO. The double calcein—AM and PI staining, involves staining with PI (a fluorescent nucleic acid dye used for the staining of dead cells) and calcein-AM a compound that inside of live brain cells, is converted to the green fluorescent compound calcein. After 30 minutes of incubation of the cells with these compounds were washed and analyzed by fluorescence microscopy. […] Cotinine inhibits Abeta oligomerization and prevents its toxicity on cortical neurons.
Embryonic rat cortical neurons were cultured following the protocol described (Brewer (1995)) but using embryonic cortical tissues obtained from Brain Bits LLC (Springfield, Ill., USA). The brain tissues were dissociated by 0.05% (v/v) trypsin digestion and dissociated by repeated passages through a pipette tip. Cortical cells (2×10^5 cells, 1,250 cells/mm^2) were plated in Neurobasal E medium, supplemented with 2% B27, and 1 mM Glutamax and plated onto 20-mm tissue culture wells coated with poly-D-lysine (0.1 mg/ml). Then cortical cells were incubated at 37° C. in a humidified incubator with 95% air/5% CO2 for 7-10 days, before being used for cell viability and protein expression analysis.
For the Aβ neurotoxicity assay, after 7 days in vitro (DIV) the conditioned media of cortical cells was replaced with Neurobasal E medium, supplemented with 2% B27 without antioxidants (B27-AO; Invitrogen, Carlsbad, Calif.) for 2 h. […]
Cell viability was quantified by MTT and propidium iodide (PI) and calcein-AM staining. […] Following 1-4 h incubation at 37° C., MTT formazan crystals were dissolved in DMSO and absorbance at […] was measured. MTT results are expressed as a percentage of vehicle-treated controls.
as §2, with “assays. […]” for “assays.”

Q: For CN1C(=O)CC[C@H]1c1cccnc1 [cotinine], which “survival of cortical neurons exposed to cotinine alone” value (cortical cells) is on record?
A: not Affected

Q: What about the “sensorimotor abilities (open field activity test)” value [1] of the same compound?
A: no changes in sensorimotor abilities were detected

Q: And the “neuroprotective actions in presence of nAChR antagonists alpha-Bungarotoxin or mecamylamine” value (nAChRs)?
A: not affected

Q: What about the “cell survival, % of vehicle-treated control cells (PI and calcein-AM)” value [2] of the same compound?
A: 83%

Q: And the “cell survival, % of vehicle-treated control cells (MTT)” value ([3]; 5 μM Aβ + 10 μM cotinine, 24 h, 7 DIV cortical cells, Aβ alone 76%)?
A: 85%

Q: What about the “effect on Aβ neurotoxicity when cotinine is added after pre-aggregation of Aβ” value ([3]; Aβ pre-incubated 3 h at 4° C. without cotinine, then added to media containing 10 μM cotinine) of the same compound?
A: not able to block Aβ neurotoxicity

Q: What about the “increase in cell viability versus Aβ alone” value ([3]; Aβ pre-incubated with 10 μM cotinine 3 h at 4° C.) of the same compound?
A: 22%

Q: And the viability at 10 µM ([3]; Rattus norvegicus, Aβ pre-incubated with 10 μM cotinine 3 h at 4° C., then 24 h on cells, Aβ alone 66%±3.6)?
A: 87.3%

Q: What about the “lowest cotinine concentration protecting cortical cells against Aβ toxicity (MTT)” value ([3]; added together with 5 μM Aβ, 24 h) of the same compound?
A: 1 µM
